Test results published in article PMC6019134, “1,2,6-Thiadiazinones as Novel Narrow Spectrum Calcium/Calmodulin-Dependent Protein Kinase Kinase 2 (CaMKK2) Inhibitors” (Molecules : A Journal of Synthetic Chemistry and Natural …, 2018).

What was measured:
Test in all cases: DSF thermal shift, kinase panel
Format in all cases: binding
Settings in all cases: 10 μM compound
CHEK2 = molecular target: T1, CHEK2 (Homo sapiens, UniProt O96017)
T1 construct: purchased in-house (home-made panel, SGC-style construct names)
Description: (§1) The corresponding dianilino-TDZs (1–5) were tested on a panel of 46 protein kinases representing the major kinome branches at a concentration of 10 μM using a Differential Scanning Fluorimetry (DSF). Only analogues 1–3 induced a significant (>2 °C) thermal shift when incubated with a subset of the proteins (Table 1).
(§2) Kinase selectivity assay—A home-made kinase panel was generated for the following enzymes: AAK1, BMP2K, BMX, BRAF, CAMK1D, CAMK1G, CAMKK1, CAMKK2B, CDC42BPA, CDK2, CDKL1, CHEK2, CLK1, CSNK1G1, CSNK1G3, CSNK2A1, DYRK1A, DYRK2A, EPHA2, GAK, GSG2, MAPK1, MAP2K7, MAPK14B, MAPK3, PHKG2, PIM1, PLK1, PKMYT1, PRPF4B, RPS6KA1A, RPS6KA5A, RPS6KA6A, SLK, SRPK1, SRPK2, STK3, STK6, STK10, STK17A, STK24, STK38L, TRIB2, TTK, VRK1 and VRK2. Proteins were produced in E. coli, purified in a Ni-chelate column, followed by overnight digestion using TEV protease (made in house with an N-terminal 6xHis tag) and dialysis to remove imidazole. To clear samples of uncleaved proteins and the TEV protease, samples were loaded on new Ni-chelate columns. The flow through was collected, concentrated and loaded to a HiLoad Superdex 200 16/600 column (GE Healthcare, Chicago, IL, USA) for final polishing and buffer exchange.
(§3) Starting from 100 µM protein stocks, our kinase panel enzymes were diluted to 1 µM in buffer 100 mM K2HPO4 pH 7.5 containing 150 mM NaCl, 10% glycerol and 5X dye (Applied Biosystems catalogue 4461806). The protein/dye mixture was transferred to a 384-well PCR microplate having 20 µL per well. Compounds in DMSO at 10 mM concentration were added in 20 nL volume, using a liquid handling device setup with a pin head, to make 10 µM compound concentration in the assay plate.
(§4) Protein thermal shift data was measured in a qPCR instrument (Applied Biosystems QuantStudio 6) programmed to equilibrate the plate at 25 °C for 5 min followed by ramping the temperature to 95 °C at a rate of 0.05 °C/s. Data was processed using Protein Thermal shift software (Applied Biosystems) by fitting experimental curves to a Boltzmann function to calculate differential thermal shifts (dTm) referenced to protein/dye in 0.2% DMSO.

CDK2 = molecular target: T2, CDK2 (Homo sapiens, UniProt P24941)
T2 construct: purchased in-house (home-made panel, SGC-style construct names)
Description: as §1, §2, §3, §4

GAKA = molecular target: T3, GAKA (Homo sapiens, UniProt O14976)
T3 construct: purchased in-house (home-made panel, SGC-style construct names)
T3 sequence (O14976 1-1311): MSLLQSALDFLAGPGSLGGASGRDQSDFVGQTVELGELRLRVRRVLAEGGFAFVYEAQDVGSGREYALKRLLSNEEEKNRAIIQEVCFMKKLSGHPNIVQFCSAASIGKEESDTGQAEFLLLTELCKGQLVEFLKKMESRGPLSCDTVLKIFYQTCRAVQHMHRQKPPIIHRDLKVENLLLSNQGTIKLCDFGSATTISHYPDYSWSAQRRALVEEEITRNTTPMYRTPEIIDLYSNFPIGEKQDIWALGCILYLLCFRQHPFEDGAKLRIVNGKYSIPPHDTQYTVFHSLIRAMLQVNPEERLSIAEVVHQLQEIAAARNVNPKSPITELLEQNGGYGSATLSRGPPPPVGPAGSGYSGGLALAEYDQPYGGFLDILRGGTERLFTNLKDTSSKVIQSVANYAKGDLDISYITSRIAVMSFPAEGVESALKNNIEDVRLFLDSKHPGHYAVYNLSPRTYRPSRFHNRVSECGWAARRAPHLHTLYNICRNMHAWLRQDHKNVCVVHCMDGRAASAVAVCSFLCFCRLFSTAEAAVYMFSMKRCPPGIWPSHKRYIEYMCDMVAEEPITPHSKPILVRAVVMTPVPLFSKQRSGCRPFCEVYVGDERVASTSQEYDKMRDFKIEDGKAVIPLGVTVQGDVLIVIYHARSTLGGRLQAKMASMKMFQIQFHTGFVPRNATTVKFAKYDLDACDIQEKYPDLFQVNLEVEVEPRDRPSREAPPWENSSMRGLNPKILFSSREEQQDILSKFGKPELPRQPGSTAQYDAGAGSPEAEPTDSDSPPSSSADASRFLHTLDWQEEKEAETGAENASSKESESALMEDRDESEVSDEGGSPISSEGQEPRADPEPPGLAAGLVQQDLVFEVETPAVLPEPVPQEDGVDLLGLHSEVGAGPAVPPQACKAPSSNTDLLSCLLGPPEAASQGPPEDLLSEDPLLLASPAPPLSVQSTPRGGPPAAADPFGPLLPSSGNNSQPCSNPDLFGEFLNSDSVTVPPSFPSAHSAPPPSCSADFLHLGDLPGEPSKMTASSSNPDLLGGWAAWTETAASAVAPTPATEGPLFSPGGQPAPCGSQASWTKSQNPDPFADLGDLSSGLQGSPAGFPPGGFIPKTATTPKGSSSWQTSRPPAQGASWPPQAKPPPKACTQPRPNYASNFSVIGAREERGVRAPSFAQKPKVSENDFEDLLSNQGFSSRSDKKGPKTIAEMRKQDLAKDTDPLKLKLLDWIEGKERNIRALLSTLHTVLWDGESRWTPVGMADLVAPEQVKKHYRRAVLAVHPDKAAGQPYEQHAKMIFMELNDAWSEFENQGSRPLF
Description: as §1, §2, §3, §4

CLK1 = molecular target: T4, CLK1 (Homo sapiens, UniProt P49759)
T4 construct: purchased in-house (home-made panel, SGC-style construct names)
Description: as §1, §2, §3, §4

BMP2K = molecular target: T5, BMP2K (Homo sapiens, UniProt Q9NSY1)
T5 construct: purchased in-house (home-made panel, SGC-style construct names)
Description: as §1, §2, §3, §4

T4 sequence (P49759 whole entry): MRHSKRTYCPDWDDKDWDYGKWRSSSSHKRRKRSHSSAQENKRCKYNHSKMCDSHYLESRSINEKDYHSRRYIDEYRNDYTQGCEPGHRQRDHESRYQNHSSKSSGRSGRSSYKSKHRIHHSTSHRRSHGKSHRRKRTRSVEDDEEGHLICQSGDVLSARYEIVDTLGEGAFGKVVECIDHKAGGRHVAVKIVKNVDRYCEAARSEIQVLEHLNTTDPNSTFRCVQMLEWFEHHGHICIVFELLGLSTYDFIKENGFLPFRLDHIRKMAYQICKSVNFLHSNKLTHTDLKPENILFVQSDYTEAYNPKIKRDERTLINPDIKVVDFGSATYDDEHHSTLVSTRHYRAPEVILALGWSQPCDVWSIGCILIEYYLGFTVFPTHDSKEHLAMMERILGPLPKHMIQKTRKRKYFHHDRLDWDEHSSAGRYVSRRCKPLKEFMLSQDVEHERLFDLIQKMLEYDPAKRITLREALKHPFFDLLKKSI
T1 sequence (O96017 whole entry): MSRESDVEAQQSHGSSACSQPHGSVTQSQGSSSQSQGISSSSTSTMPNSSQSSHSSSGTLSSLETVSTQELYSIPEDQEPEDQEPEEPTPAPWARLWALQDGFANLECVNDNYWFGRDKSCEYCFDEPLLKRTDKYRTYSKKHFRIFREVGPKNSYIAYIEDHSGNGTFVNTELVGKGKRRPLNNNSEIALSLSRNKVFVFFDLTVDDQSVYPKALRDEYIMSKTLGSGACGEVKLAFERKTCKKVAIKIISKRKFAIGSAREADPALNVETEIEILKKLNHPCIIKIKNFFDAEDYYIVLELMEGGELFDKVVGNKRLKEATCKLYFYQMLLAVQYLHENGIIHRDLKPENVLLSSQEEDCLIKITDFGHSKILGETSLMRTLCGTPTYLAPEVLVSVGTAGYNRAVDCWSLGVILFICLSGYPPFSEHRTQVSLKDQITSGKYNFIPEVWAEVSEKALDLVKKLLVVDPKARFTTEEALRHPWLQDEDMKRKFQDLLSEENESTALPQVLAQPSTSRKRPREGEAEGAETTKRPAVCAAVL
T5 sequence (Q9NSY1 whole entry): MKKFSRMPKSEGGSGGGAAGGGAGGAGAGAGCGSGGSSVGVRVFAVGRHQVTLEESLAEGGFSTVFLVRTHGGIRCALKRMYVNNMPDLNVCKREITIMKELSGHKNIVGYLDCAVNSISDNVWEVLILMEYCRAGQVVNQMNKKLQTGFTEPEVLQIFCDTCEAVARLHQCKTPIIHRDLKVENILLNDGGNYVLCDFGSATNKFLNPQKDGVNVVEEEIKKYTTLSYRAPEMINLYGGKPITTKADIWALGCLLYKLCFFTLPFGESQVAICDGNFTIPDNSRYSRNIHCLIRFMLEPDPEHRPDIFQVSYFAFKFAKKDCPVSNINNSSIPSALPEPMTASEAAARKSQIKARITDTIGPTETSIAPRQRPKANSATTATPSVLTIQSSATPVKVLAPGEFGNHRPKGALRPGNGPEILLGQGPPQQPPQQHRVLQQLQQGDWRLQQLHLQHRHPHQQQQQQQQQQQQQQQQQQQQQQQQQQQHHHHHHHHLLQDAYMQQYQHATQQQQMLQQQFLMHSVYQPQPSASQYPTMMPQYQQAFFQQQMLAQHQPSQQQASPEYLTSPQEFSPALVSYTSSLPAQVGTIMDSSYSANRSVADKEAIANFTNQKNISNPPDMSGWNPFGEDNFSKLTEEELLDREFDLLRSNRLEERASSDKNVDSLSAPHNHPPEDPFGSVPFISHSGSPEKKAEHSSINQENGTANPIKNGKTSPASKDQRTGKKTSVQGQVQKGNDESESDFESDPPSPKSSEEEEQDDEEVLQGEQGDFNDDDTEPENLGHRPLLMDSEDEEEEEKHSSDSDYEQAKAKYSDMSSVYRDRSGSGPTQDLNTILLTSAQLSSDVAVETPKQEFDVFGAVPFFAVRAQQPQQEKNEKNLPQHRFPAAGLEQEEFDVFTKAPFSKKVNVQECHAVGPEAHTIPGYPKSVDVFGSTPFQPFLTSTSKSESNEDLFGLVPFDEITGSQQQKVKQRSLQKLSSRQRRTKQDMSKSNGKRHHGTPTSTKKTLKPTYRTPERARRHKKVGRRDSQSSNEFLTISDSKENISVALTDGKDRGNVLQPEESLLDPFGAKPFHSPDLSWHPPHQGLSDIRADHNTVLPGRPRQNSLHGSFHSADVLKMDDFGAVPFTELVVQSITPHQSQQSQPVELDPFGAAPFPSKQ

## Cc1ccc(Nc2nsnc(Nc3ccc4c(c3)CS(=O)(=O)C4)c2=O)cc1O [Compound 3, 3-[(2,2-Dioxido-1,3-dihydrobenzo[c]thiophen-5-yl)amino]-5-[(3-hydroxy-4-methylphenyl)amino]-4H-1,2,6-thiadiazin-4-one]
CHEK2
  ΔTm at 10 µM: 1.6 °C
CDK2
  ΔTm at 10 µM: 1.8 °C
GAKA
  ΔTm at 10 µM: 0 °C
CLK1
  ΔTm at 10 µM: 2.1 °C
BMP2K
  ΔTm at 10 µM: 0.1 °C

## CNC(=O)c1ccccc1Nc1nsnc(Nc2ccc(N3CCOCC3)cc2)c1=O [Compound 5, N-Methyl-2-({5-[(4-morpholinophenyl)amino]-4-oxo-4H-1,2,6-thiadiazin-3-yl}amino)benzamide]
CHEK2
  ΔTm at 10 µM: 0.8 °C
CDK2
  ΔTm at 10 µM: -0.1 °C
GAKA
  ΔTm at 10 µM: -0.4 °C
CLK1
  ΔTm at 10 µM: 1 °C
BMP2K
  ΔTm at 10 µM: -0.1 °C

## CNC(=O)c1ccccc1Nc1nsnc(Nc2cccc(CS(C)(=O)=O)c2)c1=O [Compound 4, N-Methyl-2-([5-({3-[(methylsulfonyl)methyl]phenyl}amino)-4-oxo-4H-1,2,6-thiadiazin-3-yl]-amino}-benzamide]
CHEK2
  ΔTm at 10 µM: 0.6 °C
CDK2
  ΔTm at 10 µM: 0.2 °C
GAKA
  ΔTm at 10 µM: -0.4 °C
CLK1
  ΔTm at 10 µM: 0 °C
BMP2K
  ΔTm at 10 µM: -0.1 °C

## Cc1ccc(Nc2nsnc(Nc3cccc(C(N)=O)c3)c2=O)cc1O [Compound 1, 3-({5-[(3-Hydroxy-4-methylphenyl)amino]-4-oxo-4H-1,2,6-thiadiazin-3-yl}amino)benzamide]
CHEK2
  ΔTm at 10 µM: 0.6 °C
CDK2
  ΔTm at 10 µM: 0.2 °C
GAKA
  ΔTm at 10 µM: -0.3 °C
CLK1
  ΔTm at 10 µM: 0.5 °C
BMP2K
  ΔTm at 10 µM: -0.4 °C

## Cc1ccc(Nc2nsnc(Nc3ccc(C(N)=O)cc3)c2=O)cc1O [Compound 2, 4-({5-[(3-Hydroxy-4-methylphenyl)amino]-4-oxo-4H-1,2,6-thiadiazin-3-yl}amino)benzamide]
CHEK2
  ΔTm at 10 µM: 3.1 °C
CDK2
  ΔTm at 10 µM: 2.7 °C
GAKA
  ΔTm at 10 µM: 1.4 °C
CLK1
  ΔTm at 10 µM: 0.9 °C
BMP2K
  ΔTm at 10 µM: -0.2 °C
